Test results reported in ChEMBL document CHEMBL4325895, “Discovery and structure-activity-relationship study of novel imidazole cyclopropyl amine analogues for mutant isocitric dehydrogenase 1 (IDH1) inhibitors” (Bioorg Med Chem Lett, 2018).

What was measured:
[1] = biological target: Isocitrate dehydrogenase [NADP] cytoplasmic (Homo sapiens, UniProt O75874, R132H); test: Inhibition of IDH1 (unknown origin) R132H mutant using alpha-KG as substrate after 60 mins in presence of NADPH by resazurin dye-based fluorescence assay
[2] = Intrinsic clearance in mouse liver microsomes assessed per gram of protein at 0.1 uM after 60 mins in presence of NADPH by LC-MS/MS analysis; type: ADME, Microsome; details: 1 h
[3] = Intrinsic clearance in rat liver microsomes assessed per gram of protein at 0.1 uM after 60 mins in presence of NADPH by LC-MS/MS analysis; type: ADME, Microsome; details: 1 h
[4] = Intrinsic clearance in human liver microsomes assessed per gram of protein at 0.1 uM after 60 mins in presence of NADPH by LC-MS/MS analysis; type: ADME, Microsome; details: 1 h
[5] = biological target: Isocitrate dehydrogenase [NADP] cytoplasmic (Homo sapiens, UniProt O75874, R132C); test: Inhibition of IDH1 R132C mutant in human HT1080 cells assessed as inhibition of 2HG production after 48 hrs by LC-MS/MS analysis; type: cell-based
[6] = Volume of distribution at steady state in CD-1 mouse at 1 mg/kg, iv by mass spectrometric analysis; type: ADME, organism-based; details: in vivo
[7] = Clearance in CD-1 mouse at 1 mg/kg, iv by mass spectrometric analysis; type: ADME, organism-based; details: in vivo
[8] = AUC in CD-1 mouse at 5 mg/kg, po administered via gavage by mass spectrometric analysis; type: ADME, organism-based; details: in vivo
[9] = Stability in human liver microsomes assessed as parent compound remaining at 0.01 uM after 60 mins by LC-MS/MS analysis; type: ADME, Microsome; details: read-out: Stability
[10] = Oral bioavailability in CD-1 mouse at 5 mg/kg administered via gavage by mass spectrometric analysis; type: ADME, organism-based; details: in vivo
[11] = AUC in CD-1 mouse at 1 mg/kg, iv by mass spectrometric analysis; type: ADME, organism-based; details: in vivo
[12] = Drug level in human liver microsomes treated with (R)-3-(2-((1-(1-(3-chloro-4-fluorophenyl)-1H-imidazol-4-yl)cyclopropyl)amino)pyrimidin-4-yl)-4-((S)-1-fluoroethyl)oxazolidin-2-one at 0.01 uM after 60 mins by LC-MS/MS analysis; type: ADME, Microsome
[13] = Dose normalized AUC in CD-1 mouse at 5 mg/kg, po administered via gavage by mass spectrometric analysis; type: ADME, organism-based; details: in vivo

Chain of Isocitrate dehydrogenase [NADP] cytoplasmic (Homo sapiens, UniProt O75874, R132C) (O75874 2-414 R132C limits assumed): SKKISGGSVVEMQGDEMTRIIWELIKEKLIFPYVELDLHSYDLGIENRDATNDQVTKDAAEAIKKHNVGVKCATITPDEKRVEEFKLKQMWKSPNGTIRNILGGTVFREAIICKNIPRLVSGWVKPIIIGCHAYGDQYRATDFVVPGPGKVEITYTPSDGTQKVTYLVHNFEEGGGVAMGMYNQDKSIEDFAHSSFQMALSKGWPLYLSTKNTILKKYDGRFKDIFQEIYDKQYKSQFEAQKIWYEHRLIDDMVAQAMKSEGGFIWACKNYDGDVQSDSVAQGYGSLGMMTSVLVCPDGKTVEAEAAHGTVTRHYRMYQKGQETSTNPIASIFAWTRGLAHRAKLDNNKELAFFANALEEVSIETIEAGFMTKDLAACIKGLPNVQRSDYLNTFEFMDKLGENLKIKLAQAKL
Chain of Isocitrate dehydrogenase [NADP] cytoplasmic (Homo sapiens, UniProt O75874, R132H) (O75874 2-414 R132H limits assumed): as the sequence (O75874 2-414 R132C limits assumed) above, with C131H counted along it

SMILES	IC50 [1]	IC50 [5]	other results
Cc1c(C2(Nc3nccc(N4C(=O)OC[C@@H]4[C@H](C)F)n3)CC2)ncn1-c1cccc(C(F)(F)F)c1	56 nM	38 nM	
C[C@H](F)[C@H]1COC(=O)N1c1ccnc(NC2(c3cn(-c4ccc(F)c(Cl)c4)cn3)CC2)n1	25 nM	12 nM	Vd [6]: 1.2 L/kg; CLint [2]: 185 mL/min/g; clearance [7]: 172 mL/min/kg; CLint [3]: 133 mL/min/g; AUC [8]: 25 ng·h/mL; remaining at 1 h, 0.01 µM [9]: 22%; CLint [4]: 125 mL/min/g; bioavailability [10]: 20%; AUC [11]: 40 ng·h/mL
C[C@H](F)[C@H]1COC(=O)N1c1ccnc(NC2(c3cn(-c4ccccc4C(F)(F)F)cn3)CC2)n1	112 nM		
O=C1OC[C@H]([C@@H](F)CO)N1c1cc(Cl)nc(NC2(c3cn(-c4ccc(F)c(Cl)c4)cn3)CC2)n1			Drug uptake [12]: Active
C[C@H](F)[C@H]1COC(=O)N1c1ccnc(NC2(c3cn(-c4cccc(C(F)(F)F)c4)cn3)CC2)n1	32 nM	10 nM	CLint [2]: 430 mL/min/g; CLint [3]: 312 mL/min/g; CLint [4]: 153 mL/min/g
C[C@H](F)[C@H]1COC(=O)N1c1ccnc(NC2(c3cn(-c4cc(Cl)cc(Cl)c4)cn3)CC2)n1	36 nM	21 nM	
C[C@H](F)[C@H]1COC(=O)N1c1ccnc(NC2(c3cn(-c4cncc(C(F)(F)F)c4)cn3)CC2)n1	152 nM		
C[C@H](F)[C@H]1COC(=O)N1c1ccnc(NC2(c3cn(-c4cc(F)cc(Cl)c4)cn3)CC2)n1	27 nM	18 nM	CLint [2]: 567 mL/min/g; CLint [3]: 240 mL/min/g; CLint [4]: 350 mL/min/g
C[C@H](F)[C@H]1COC(=O)N1c1ccnc(NC2(c3cn(-c4ccnc(C(F)(F)F)c4)cn3)CC2)n1	220 nM		
C[C@H](F)[C@H]1COC(=O)N1c1ccnc(NC2(c3cn(-c4cc(C(F)(F)F)ccn4)cn3)CC2)n1	250 nM		
C[C@H](F)[C@H]1COC(=O)N1c1nc(NC2(c3cn(-c4ccc(F)c(Cl)c4)cn3)CC2)ncc1F	35 nM	18 nM	Vd [6]: 0.6 L/kg; CLint [2]: 95 mL/min/g; clearance [7]: 65 mL/min/kg; CLint [3]: 89 mL/min/g; AUC [8]: 153 ng·h/mL; AUC/dose [13]: 31 ng/mL.hr/(mg/kg); CLint [4]: 55 mL/min/g; bioavailability [10]: 12%; AUC [11]: 257 ng·h/mL
CC(F)(F)[C@H]1COC(=O)N1c1ccnc(NC2(c3cn(-c4ccc(F)c(Cl)c4)cn3)CC2)n1	721 nM		
C[C@H](F)[C@H]1COC(=O)N1c1ccnc(NC2(c3ncn(-c4cccc(C(F)(F)F)c4)c3Cl)CC2)n1	41 nM	26 nM	
C[C@H](F)[C@H]1COC(=O)N1c1ccnc(NC2(c3cn(-c4cccc(C(F)(F)F)n4)cn3)CC2)n1	266 nM		

Further lines, with some results ahead:

IC50 [1]	IC50 [5]	SMILES	other results
831 nM		C[C@H](F)[C@H]1COC(=O)N1c1ccnc(NC2(c3ncn(-c4cccc(C(F)(F)F)c4)n3)CC2)n1	
32 nM	25 nM	C[C@H](F)[C@H]1COC(=O)N1c1cc(Cl)nc(NC2(c3cn(-c4ccc(F)c(Cl)c4)cn3)CC2)n1	CLint [2]: 155 mL/min/g; CLint [3]: 123 mL/min/g; CLint [4]: 110 mL/min/g
85 nM	55 nM	C[C@H](F)[C@H]1COC(=O)N1c1ccnc(NC2(c3ncn(-c4cccc(C(F)(F)F)c4)c3C#N)CC2)n1	
65 nM	32 nM	C[C@H](F)[C@H]1COC(=O)N1c1ccnc(NC2(c3cn(-c4ccc(C(F)(F)F)cc4)cn3)CC2)n1	
42 nM	23 nM	C[C@H](F)[C@H]1COC(=O)N1c1ccnc(NC2(c3cn(-c4cccc(Cl)c4)cn3)CC2)n1	
54 nM	56 nM	C[C@H](F)[C@H]1COC(=O)N1c1ccnc(NC2(c3cn(-c4ccc(Cl)cc4)cn3)CC2)n1	
40 nM	21 nM	C[C@H](F)[C@H]1COC(=O)N1c1ccnc(NC2(c3cn(-c4ccc(F)c(Cl)c4)cn3)CCC2)n1	CLint [2]: 505 mL/min/g; CLint [3]: 372 mL/min/g; CLint [4]: 195 mL/min/g
